Measurements taken from patent US10562910B2, “Nitrogen-containing tricyclic compounds and uses thereof in medicine” (SUNSHINE LAKE PHARMA CO., LTD., priority 2016, dated 2020).

Assays:
[1] = Pharmacokinetics test in SD rats; type: in vivo; details: rat, plasma, male SD rats; for Vd: read-out: Vss; for bioavailability: po 5 mg/kg vs iv 1 mg/kg
Method: Example 22 Pharmacokinetics Test
Experimental animals: six healthy adult male SD rats (purchased from Hunan SJA Laboratory Animal Co. Ltd.) were divided into two groups, three rats in each group, and the two groups were given intravenous injection and oral administration respectively.
Drug preparation: a quantity of a compound of the present invention was weighed, and 5% DMSO, 10% Kolliphor HS15 and 85% saline (0.9%) were added to give target concentrations of the compound solution.
Administration and sample collection: animals were fasted for 12 h before administration, and fed at the time point of 3 hours after the administration. SD rats of one group were given intravenous injection (IV, 1 mg/kg) via hind legs and SD rats of the other group were given oral administration (PO, 5 mg/kg) respectively. Then blood was collected in the rat tail vein at the time point of 0, 0.083, 0.25, 0.5, 1, 2, 4, 6, 8, 24 h respectively, and the blood volume was about 200-400 μL/time point. After the collection of whole blood at each time point, the collected blood was set in K2EDTA anticoagulant tube, and the tube was placed in the incubator with ice packs. All samples were centrifuged for 5 min at 4° C. at 4600 r/min within 15 min. Plasma was separated and collected. The concentrations of different compounds in the plasma of the rats after administration were measured using LC/MS/MS method, and the pharmacokinetic parameters were calculated according to the curve of the drug concentration-time.

FXR-LBD = FXR-LBD (Homo sapiens (Human), UniProt Q96RI1); experiment: TR-FRET Farnesoid X Receptor Coactivator Assay; type: biochemical; details: TR-FRET farnesoid X receptor protein coactivator activity
FXR-LBD, sequence (Q96RI1 262-486): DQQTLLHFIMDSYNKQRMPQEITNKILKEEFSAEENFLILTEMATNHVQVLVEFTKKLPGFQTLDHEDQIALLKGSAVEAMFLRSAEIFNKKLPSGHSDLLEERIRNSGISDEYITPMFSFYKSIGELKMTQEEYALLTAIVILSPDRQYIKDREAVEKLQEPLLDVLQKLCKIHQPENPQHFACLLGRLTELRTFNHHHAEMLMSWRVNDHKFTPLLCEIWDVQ
Method: Purchasing invitrogen PV4833 kits. The procedure refers to LanthaScreen™ TR-FRET Farnesoid X Receptor Coactivator Assay
First, the required amount of the compound was weighed and dissolved in 100% DMSO at the maximum concentration of 3000 μM. The solution at the maximum concentration was diluted by 3-fold serial dilution in DMSO to get 10 concentrations;
Second, the above prepared solutions of different concentrations were diluted to 50-fold with a buffer supplied with the kit, to 2× compound solution, followed by mixing and then 10 μL of the diluted solution was added to a 384 well plate;
Third, FXR-LBD was diluted with a buffer to 4× solution, and 5 μL of the diluent was added to the 384 well plate of second step;
Fourth, Fluorescein-SRC2-2 and Tb anti-GST antibody were diluted to 4× Fluorescein-SRC2-2 and Tb anti-GST antibody solution. Then two reagents were mixed together, and 5 μL of the mixture was added to the 384 well plate of third step;
Finally, the solution of the 384 well above was mixed uniformly by centrifuging, and then incubated at room temperature for 1 h. Then the TR-FRET Endpoint method was used for measuring the solution at wavelengths of 520 nm, 495 nm and 337 nm.

[2] = biological target: FXR ligand binding domain (LBD) (Homo sapiens (Human), UniProt Q96RI1); experiment: Mammalian one hybrid (M1H) GAL4 reporter gene assay in HEK293 cells; type: cell-based; details: GAL4 reporter gene test
FXR ligand binding domain (LBD), sequence (Q96RI1 261-481): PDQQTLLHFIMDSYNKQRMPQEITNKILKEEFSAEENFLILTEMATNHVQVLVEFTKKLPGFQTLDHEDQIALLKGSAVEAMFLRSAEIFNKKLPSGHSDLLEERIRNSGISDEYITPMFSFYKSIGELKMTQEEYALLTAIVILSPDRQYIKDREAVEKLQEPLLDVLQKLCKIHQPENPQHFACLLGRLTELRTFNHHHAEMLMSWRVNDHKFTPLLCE
From the text: Mammalian one hybrid technology is also called chimeric receptor gene assay. Based on the GAL4 chimera receptor assay, the activity of compounds which mediated activation of FXR was detected by dual luciferase reporter assay. The methods were as follows: cDNA encoding the FXR ligand binding domain (LBD), the yeast GAL4 DNA binding domain (DBD) and the Renilla luciferase DNA were fused to construct a chimera expression plasmid pBIND-FXR (Promega). […] The plasmid pG5Luc (Promega) was used as the reporter plasmid, containing the GAL4 upstream activation sequence (UAS) and the Firefly luciferase receptor gene. All GAL4 reporter gene assays were done in HEK293 cells. Cells were cultured at 37° C., 5% CO2 under humidified conditions. […] The contents were mixed completely and incubated the mixtures for 15 minutes at room temperature. The volume of the transfection mixture was 2.5 μl/well. Trypsinized and diluted the cell slurry at a density of […] (100 μl/well for 96-well plate). Then added required volume of transfection mixture prepared previously into the cell slurry, and dispensed 100 μl/well of the cell slurry into the 96-well plate and incubated the plate for 24 hours at 37° C., 5% CO2 under humidified conditions. Compounds prediluted in complete medium were added into each well and then incubated at 37° C., 5% CO2 under humidified conditions for 18 hours. The firefly and renilla luciferase signal was assayed by Promega's Dual Luciferase Reporter Assay System.
The % Activation value was calculated by the following equation: Activation %=[(X−Min)/(Max−Min)]×100%. “X” is the “F/R” value from compounds. “F/R” means “Firefly/Renilla”. “Min” is the mean “F/R” value from no compound control. “Max” is the mean “F/R” value from reference compound control. Finally, the EC50 value of each compounds were calculated by GraphPrism 5.0.

O=C(O)c1ccc2c(c1)Oc1ccc(OCc3c(-c4c(Cl)cccc4Cl)noc3C3CC3)nc1C(F)=C2 [Example 5, 2-((5-cyclopropyl-3-(2,6-dichlorophenyl)isoxazol-4-yl)methoxy)-11-fluorobenzo[6,7]oxepino[3,2-b]pyridine-7-carboxylic acid]
AUC(0-inf) ([1]; iv 1 mg/kg): 1580 ng·h/mL | AUC(0-t) ([1]; iv 1 mg/kg): 1580 ng·h/mL | Cmax ([1]; iv 1 mg/kg): 3040 ng/mL | MRT inf ([1]; iv 1 mg/kg): 32.9 min | Tmax ([1]; iv 1 mg/kg): 4.98 min | clearance ([1]; iv 1 mg/kg): 10.6 mL/min/kg | half-life ([1]; iv 1 mg/kg): 40.9 min | Vd ([1]; iv 1 mg/kg): 0.344 L/kg | AUC(0-inf) ([1]; po 5 mg/kg): 7480 ng·h/mL | AUC(0-t) ([1]; po 5 mg/kg): 7450 ng·h/mL | Cmax ([1]; po 5 mg/kg): 6430 ng/mL | MRT inf ([1]; po 5 mg/kg): 64.2 min | Tmax ([1]; po 5 mg/kg): 30 min | half-life ([1]; po 5 mg/kg): 50.3 min | bioavailability [1]: 95%

O=C(O)c1ccc2c(c1)Oc1ccc(OCc3c(-c4c(Cl)cccc4Cl)noc3C3CC3)nc1C=C2F [Example 1, 2-((5-cyclopropyl-3-(2,6-dichlorophenyl)isoxazol-4-yl)methoxy)-10-fluorobenzo[6,7]oxepino[3,2-b]pyridine-7-carboxylic acid]
EC50 (FXR-LBD): 0.0493 µM | AUC(0-inf) ([1]; iv 1 mg/kg): 1540 ng·h/mL | AUC(0-t) ([1]; iv 1 mg/kg): 1540 ng·h/mL | Cmax ([1]; iv 1 mg/kg): 1890 ng/mL | MRT inf ([1]; iv 1 mg/kg): 47.5 min | Tmax ([1]; iv 1 mg/kg): 4.98 min | clearance ([1]; iv 1 mg/kg): 11.2 mL/min/kg | half-life ([1]; iv 1 mg/kg): 43.4 min | Vd ([1]; iv 1 mg/kg): 0.522 L/kg | AUC(0-inf) ([1]; po 5 mg/kg): 4210 ng·h/mL | AUC(0-t) ([1]; po 5 mg/kg): 4180 ng·h/mL | Cmax ([1]; po 5 mg/kg): 2760 ng/mL | MRT inf ([1]; po 5 mg/kg): 79.2 min | Tmax ([1]; po 5 mg/kg): 30 min | half-life ([1]; po 5 mg/kg): 54.8 min | bioavailability [1]: 55%

O=C(O)c1cc2c(cc1F)CCc1nc(OCc3c(-c4c(Cl)cccc4Cl)noc3C3CC3)ccc1O2 [Example 6, 2-((5-cyclopropyl-3-(2,6-dichlorophenyl)isoxazol-4-yl)methoxy)-8-fluoro-10,11-dihydrobenzo[6,7]oxepino[3,2-b]pyridine-7-carboxylic acid]
EC50 (FXR-LBD): 0.031 µM

O=C(O)c1ccc2c(c1)Oc1ccc(OCc3c(-c4c(Cl)cccc4Cl)noc3C3CC3)nc1C1CC21 (centres unmarked) [Example 3, 3-((5-cyclopropyl-3-(2,6-dichlorophenyl)isoxazol-4-yl)methoxy)-1a,10b-dihydro-1H-benzo[6,7]cyclopropa[4,5]oxepino[3,2-b]pyridine-8-carboxylic acid]
EC50 (FXR-LBD): 0.0761 µM

O=C(O)c1ccc2c(c1)Oc1ccc(OCc3c(-c4c(Cl)cccc4Cl)noc3C3CC3)nc1C1(CC1)C2 [Example 9, 2-((5-cyclopropyl-3-(2,6-dichlorophenyl)isoxazol-4-yl)methoxy)-10H-spiro[benzo[6,7]oxepino[3,2-b]pyridine-11,1′-cyclopropane]-7-carboxylic acid]
EC50 [2]: 0.002 µM

O=C(O)c1ccc2c(c1)Oc1ccc(OCc3c(-c4c(Cl)cccc4Cl)noc3C3CC3)nc1CO2 [Example 2, 2-((5-cyclopropyl-3-(2,6-dichlorophenyl)isoxazol-4-yl)methoxy)-11H-benzo[2,3][1,4]dioxepino[6,5-b]pyridine-7-carboxylic acid]
EC50 (FXR-LBD): 0.0051 µM | AUC(0-inf) ([1]; iv 1 mg/kg): 1150 ng·h/mL | AUC(0-t) ([1]; iv 1 mg/kg): 1150 ng·h/mL | Cmax ([1]; iv 1 mg/kg): 2060 ng/mL | MRT inf ([1]; iv 1 mg/kg): 32.9 min | Tmax ([1]; iv 1 mg/kg): 4.98 min | clearance ([1]; iv 1 mg/kg): 14.8 mL/min/kg | half-life ([1]; iv 1 mg/kg): 53 min | Vd ([1]; iv 1 mg/kg): 0.479 L/kg | AUC(0-inf) ([1]; po 5 mg/kg): 4110 ng·h/mL | AUC(0-t) ([1]; po 5 mg/kg): 4110 ng·h/mL | Cmax ([1]; po 5 mg/kg): 3640 ng/mL | MRT inf ([1]; po 5 mg/kg): 55.9 min | Tmax ([1]; po 5 mg/kg): 30 min | half-life ([1]; po 5 mg/kg): 42.6 min | bioavailability [1]: 72%

O=C(O)c1cc(F)c2c(c1)Oc1ccc(OCc3c(-c4c(Cl)cccc4Cl)noc3C3CC3)nc1CC2 [Example 4, 2-((5-cyclopropyl-3-(2,6-dichlorophenyl)isoxazol-4-yl)methoxy)-9-fluoro-10,11-dihydrobenzo[6,7]oxepino[3,2-b]pyridine-7-carboxylic acid]
EC50 (FXR-LBD): 0.0604 µM

CC1=Cc2ccc(C(=O)O)cc2Oc2ccc(OCc3c(C4CC4)cnn3-c3c(Cl)cccc3Cl)nc21 [Example 15, 2-((4-cyclopropyl-1-(2,6-dichlorophenyl)-1H-pyrazol-5-yl)methoxy)-11-methylbenzo[6,7]oxepino[3,2-b]pyridine-7-carboxylic acid]
EC50 [2]: 0.013 µM

O=C(O)c1ccc2c(c1)Oc1ccc(OCc3c(-c4c(Cl)cccc4Cl)noc3C3CC3)nc1C(C1CC1)C2 (centres unmarked) [Example 17, 11-cyclopropyl-2-((5-cyclopropyl-3-(2,6-dichlorophenyl)isoxazol-4-yl)methoxy)-10,11-dihydrobenzo[6,7]oxepino[3,2-b]pyridine-7-carboxylic acid]
EC50 [2]: 0.065 µM

O=C(O)c1ccc2c(c1)Oc1ccc(OCc3c(-c4c(Cl)cccc4Cl)noc3C3CC3)nc1C(C(F)(F)F)C2 (centres unmarked) [Example 8, 2-((5-cyclopropyl-3-(2,6-dichlorophenyl)isoxazol-4-yl)methoxy)-11-(trifluoromethyl)-10,11-dihydrobenzo[6,7]oxepino[3,2-b]pyridine-7-carboxylic acid]
EC50 [2]: 0.026 µM

O=C(O)c1ccc2c(c1)Oc1ccc(OCc3c(-c4c(Cl)cccc4Cl)noc3C3CC3)nc1C(C1CC1)=C2 [Example 16, 11-cyclopropyl-2-((5-cyclopropyl-3-(2,6-dichlorophenyl)isoxazol-4-yl)methoxy)benzo[6,7]oxepino[3,2-b]pyridine-7-carboxylic acid]
EC50 [2]: 0.005 µM

O=C(O)c1ccc2c(c1)Oc1ccc(OCc3c(-c4c(Cl)cccc4Cl)noc3C3CC3)nc1C(C(F)(F)F)=C2 [Example 7, 2-((5-cyclopropyl-3-(2,6-dichlorophenyl)isoxazol-4-yl)methoxy)-11-(trifluoromethyl)benzo[6,7]oxepino[3,2-b]pyridine-7-carboxylic acid]
EC50 [2]: 0.011 µM

CC1=Cc2nc(OCc3c(-c4c(Cl)cccc4Cl)noc3C3CC3)ccc2Oc2cc(C(=O)O)ccc21 [Example 18, 2-((5-cyclopropyl-3-(2,6-dichlorophenyl)isoxazol-4-yl)methoxy)-10-methylbenzo[6,7]oxepino[3,2-b]pyridine-7-carboxylic acid]
EC50 [2]: 0.093 µM

O=C(O)c1ccc2c(c1)Oc1ccc(OCc3c(-c4c(Cl)cccc4Cl)noc3C3CC3)nc1C(F)(F)C2O (centres unmarked) [Example 12, 2-((5-cyclopropyl-3-(2,6-dichlorophenyl)isoxazol-4-yl)methoxy)-11,11-difluoro-10-hydroxy-10,11-dihydrobenzo[6,7]oxepino[3,2-b]pyridine-7-carboxylic acid]
EC50 [2]: 0.136 µM

O=C(O)c1ccc2c(c1)Oc1ccc(OCc3c(-c4c(Cl)cccc4Cl)noc3C3CC3)nc1C(F)(F)C2 [Example 10, 2-((5-cyclopropyl-3-(2,6-dichlorophenyl)isoxazol-4-yl)methoxy)-11,11-difluoro-10,11-dihydrobenzo[6,7]oxepino[3,2-b]pyridine-7-carboxylic acid]
EC50 [2]: 0.012 µM | AUC(0-inf) ([1]; iv 1 mg/kg): 1330 ng·h/mL | AUC(0-t) ([1]; iv 1 mg/kg): 1330 ng·h/mL | Cmax ([1]; iv 1 mg/kg): 3020 ng/mL | MRT inf ([1]; iv 1 mg/kg): 25.7 min | Tmax ([1]; iv 1 mg/kg): 4.98 min | clearance ([1]; iv 1 mg/kg): 12.6 mL/min/kg | half-life ([1]; iv 1 mg/kg): 47.6 min | Vd ([1]; iv 1 mg/kg): 0.322 L/kg | AUC(0-inf) ([1]; po 5 mg/kg): 5840 ng·h/mL | AUC(0-t) ([1]; po 5 mg/kg): 5790 ng·h/mL | Cmax ([1]; po 5 mg/kg): 3760 ng/mL | MRT inf ([1]; po 5 mg/kg): 82.8 min | Tmax ([1]; po 5 mg/kg): 30 min | half-life ([1]; po 5 mg/kg): 57.4 min | bioavailability [1]: 88%
